According to article PMC10786919, “Design-rules for stapled peptides with in vivo activity and their application to Mdm2/X antagonists” (Nature Communications, 2024):
Converted amounts (≈) assume the structure as drawn. Like-named read-outs stand apart in the source and are kept apart here. Positions of bridges follow the written chain, without caps; N, C: chain ends. Non-standard residues stand in square brackets, D forms with d. Residues, ends and D or L forms follow the SMILES beside them. Lys(N3) = [N-]=[N+]=NCCCC[C@H](N)C(=O)O; 2Nal = N[C@@H](Cc1ccc2ccccc2c1)C(=O)O; Gla = N[C@@H](CC(C(=O)O)C(=O)O)C(=O)O; R8 = C=CCCCCCC[C@@](C)(N)C(=O)O; Cba = N[C@@H](CC1CCC1)C(=O)O; S5 = C=CCCC[C@](C)(N)C(=O)O; βAla = NCCC(=O)O

How the values were obtained:
[1] = Experimental LogD (partition coefficient); details: for logD: not stated, Partition Coeff LogD
[2] = tested on: Jump-In T-REx CHO-K1 BLA cells; experiment: cells; format: cell-based; details: for EC50: read-out: TETCHO: Counterscreen EC50
[3] = tested on: HCT116 cells; experiment: Lactate dehydrogenase (LDH) release assay; format: cell-based
In short: (§1)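 Geometric means of at least three independent biological runs are given for LDH release measured in HCT116 cells stably expressing a p53-driven β-lactamase reporter. Plating density was 8000 cells/well; DMSO in wells was 0.5%.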

[4] = Lactate dehydrogenase (LDH) release assay; format: cell-based
In short: as §1

[5] = EPSA; format: physicochemical
[6] = biological target: T1, human Mdm2 1–125 (Homo sapiens, UniProt Q00987); experiment: Mdm2 binding by competitive fluorescence anisotropy assay (FP binding)
T1 construct: GST (N); His6 (internal); TEV cleavage site (ENLYFQG) (internal); made in house; host or cells: BL21 (DE3) Rosetta T1R Escherichia coli
T1 sequence (Q00987 with tags, fused parts or gaps): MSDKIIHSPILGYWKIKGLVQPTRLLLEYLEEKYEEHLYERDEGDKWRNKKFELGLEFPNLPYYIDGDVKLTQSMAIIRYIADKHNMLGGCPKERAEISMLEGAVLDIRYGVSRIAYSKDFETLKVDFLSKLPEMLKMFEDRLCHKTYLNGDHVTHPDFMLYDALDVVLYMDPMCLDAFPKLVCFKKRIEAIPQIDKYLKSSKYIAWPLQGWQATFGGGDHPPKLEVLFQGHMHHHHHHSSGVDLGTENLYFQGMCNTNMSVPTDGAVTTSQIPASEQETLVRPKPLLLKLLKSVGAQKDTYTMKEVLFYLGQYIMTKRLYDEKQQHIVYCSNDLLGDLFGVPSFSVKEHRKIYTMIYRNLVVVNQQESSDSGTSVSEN
From the text: The TEV (tobacco etch virus) cleavage site was changed from ENLYFQS to ENLYFQG to give a fusion protein with the following sequence:
[P] is the protein concentration (Mdm2), [L] is the labeled peptide concentration, r is the anisotropy measured, r0 is the anisotropy of the free peptide, rb is the anisotropy of the Mdm2–FAM-labeled peptide complex, Kd is the dissociation constant, [L]t is the total FAM labeled peptide concentration, and [P]t is the total Mdm2 concentration. […] This value was then used to determine apparent Kd values of the respective competing ligands in subsequent competition assays in fluorescence anisotropy experiments.
The competing molecules were then titrated against the complex of the FAM-labeled peptide and protein. Apparent Kd values were determined by fitting the experimental data to equations shown below:2 r=ro+(rb−ro)×2(d^2−3e)cos(θ/3)−9/3Kd1+2(d^2−3e)cos(θ/3)−d 3 d=Kd1+Kd2+[L]st+[L]t−Pt 4 e=Lt−PtKd1+Lst+PtKd2+Kd1Kd2 5 f=−Kd1Kd2[P]t 6 θ=arcos−2d^3+9de−27f/2(d^2−3e)^3
[L]st and [L]t denote labeled ligand and total unlabeled ligand input concentrations, respectively. Kd2 is the dissociation constant of the interaction between the unlabeled ligand and the protein. In all competition experiments, it is assumed that [P]t > [L]st, otherwise considerable amounts of free labeled ligand would always be present and would interfere with measurements. […] The FAM-labeled peptide was dissolved in dimethyl sulfoxide (DMSO) at 1 mM and diluted into experimental buffer. Readings were carried out with an Envision Multilabel Reader (PerkinElmer). […] Curve-fitting was carried out using Prism 4.0 (GraphPad). […] Negative control titrations of the ligands under investigation were also carried out with the fluorescently labeled peptide (in the absence of Mdm2) to ensure no interactions were occurring between the ligands and the FAM-labeled peptide. […] Measurements were taken a minimum of three times (biological replicates) and values are reported as geometric means of the replicates.

[7] = Solubility assay (kinetic solubility, PBS pH 7); format: physicochemical; details: pH 7, PBS; for solubility kinetic: pH 7, aqueous buffer, kinetic from dmso stock, read-out: Solubility
In short: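 Reference standards were made by diluting the 10 mM stock to 100 µM in acetonitrile:methanol:DMSO 10:80:10. Solubility in µM was calculated as the sample peak area divided by the standard peak area, multiplied by the standard concentration.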

[8] = tested on: p53 responsive β-lactamase reporter in HCT116 cells; experiment: cells; format: cell-based
In short: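 Read-out used the ToxBLAzer Dual Screen for β-lactamase driven by a stably integrated p53-responsive reporter. Assay: 8000 HCT116 cells per well at 0.5% final DMSO. Reported numbers are geometric means over a minimum of three biological replicates.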

[9] = tested on: Ca Ski cell line; details: Ca Ski
In short: (§2)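 Compound dilution series (10 points, 3-fold, 10 mM top stock in DMSO) tested on overnight-plated Ca Ski cells in RPMI1640/10% FBS and on blasticidin-selected p53RE-bla HCT-116 cells in McCoy's 5A; read-out was CellTiter-Glo 2.0 luminescence after room-temperature equilibration.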

[10] = tested on: CellSensor p53RE-bla HCT-116 Cell Line; details: read-out: Proliferation EC50 HCT116 (On-target); HCT116
In short: as §2

[11] = Nanoclick permeability assay
In short: (§3)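 Azido-peptide permeability was read as loss of NanoBRET signal (donor 450 nm, acceptor 610 nm) after adding NanoBret618-azide at 10 μM final.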

[12] = tested on: cells transiently transfected with the NanoLuc-HaloTag vector; experiment: Nanoclick permeability assay; details: Glu scan
In short: as §3

[13] = 0% FBS 4Hr, read-out: p53 reporter assay: EC50
[14] = 0% FBS 4Hr, read-out: p53 reporter assay EC50

Structure (SMILES) | logD [1] | TETCHO: Counterscreen % Effect ([2]; 0% FBS 4Hr) [%] | EC50 ([2]; 0% FBS 4Hr) [µM] | EPSA ([5]; EPSA) [A^2] | Kd ([6]; read-out: FP binding assay KD) [nM] | solubility kinetic [7] [µM] | p53 reporter assay: % Effect ([8]; 0% FBS 4Hr) [%] | EC50 [8, 13] [µM] | LDH: Cytotoxicity assay % Effect [3] [%] | EC50 ([4]; LDH: Cytotoxicity assay EC50) [µM] | EC50 [8, 14] [µM] | other results
CC(=O)N[C@@H](CCCCN)C(=O)NCCCCCC(=O)N[C@H](C(=O)N[C@@H](CO)C(=O)N[C@@H](Cc1ccccc1)C(=O)N[C@]1(C)CCCCCCC=CCCC[C@@](C)(C(=O)N[C@@H](CCC(=O)O)C(=O)N[C@@H](CC(N)=O)C(=O)N[C@@H](Cc2ccccc2)C(N)=O)NC(=O)[C@H](CC(C)C)NC(=O)[C@H](CC(C)C)NC(=O)[C@H](C)NC(=O)[C@H](Cc2c[nH]c3ccccc23)NC(=O)[C@H](Cc2ccc(O)cc2)NC(=O)[C@H](CCC(=O)O)NC1=O)[C@@H](C)O [MP-6210] | 2.55 | 57.09 | 44 | 255 | 67.4 | 74 (≈ 155 µg/mL) | 115.9 | 7.41 | – | – | – | LDH: Cytotoxicity assay: % Effect [3]: 13.27%; EC50 ([4]; LDH: Cytotoxicity assay: EC50): > 50.7 µM
CC(=O)N[C@@H](CCCCN=[N+]=[N-])C(=O)NCCC(=O)N[C@@H](CC(C)C)C(=O)N[C@H](C(=O)N[C@@H](Cc1ccccc1)C(=O)N[C@]1(C)CCCCCCC=CCCC[C@@](C)(C(=O)N[C@@H](CC(C(=O)O)C(=O)O)C(=O)N[C@@H](C)C(=O)N[C@@H](C)C(=O)N[C@@H](C)C(=O)N[C@@H](C)C(=O)N[C@H](C)C(N)=O)NC(=O)[C@H](CC2CCC2)NC(=O)[C@H](CCC(N)=O)NC(=O)[C@H](C)NC(=O)[C@H](Cc2c[nH]c3ccccc23)NC(=O)[C@H](Cc2ccc(O)cc2)NC(=O)[C@H](CCC(=O)O)NC1=O)[C@@H](C)O [MP-897] (Ac-[Lys(N3)][βAla]LTF[R8]EYWAQ[Cba][S5][Gla]AAAA[dA]-NH2; staple 6-13) | 2.25 | – | – | 257 | – | 163 (≈ 370 µg/mL) | – | – | – | – | – | LDH: Cytotoxicity assay: % Effect ([3]; 0% FBS 4Hr): 6.465%; LDH: Cytotoxicity assay: % Effect ([3]; 10% FBS 16Hr): 20.53%; EC50 ([4]; 0% FBS 4Hr, read-out: LDH: Cytotoxicity assay: EC50): > 50.7 µM; EC50 ([4]; 10% FBS 16Hr, read-out: LDH: Cytotoxicity assay: EC50): > 50.7 µM; Kd ([6]; Binding KD): < 1 nM; Proliferation % inhibition at 50 µM Ca Ski ([9]; 50 µM): -19.1%; EC50 ([9]; read-out: Proliferation EC50 Ca Ski (Off-target)): > 49.8 µM; EC50 [10]: 790 nM; cell entry EC50 [11]: 2270 nM
CC(=O)N[C@@H](CC(C)C)C(=O)N[C@H](C(=O)N[C@@H](Cc1ccccc1)C(=O)N[C@]1(C)CCCCCCC=CCCC[C@@](C)(C(=O)N[C@@H](CO)C(=O)N[C@@H](C)C(=O)N[C@@H](C)C(N)=O)NC(=O)[C@H](CC(C)C)NC(=O)[C@H](CCC(N)=O)NC(=O)[C@H](C)NC(=O)[C@H](Cc2c[nH]c3ccccc23)NC(=O)[C@H](Cc2ccc(O)cc2)NC(=O)[C@H](CCC(=O)O)NC1=O)[C@@H](C)O [MP-211] | – | 40.04 | 48.5 | – | 67.8 | – | 96.16 | 0.731 | – | – | – | Partition Coeff LogD [1]: 2.82; TETCHO: Counterscreen % Effect ([2]; 0% FBS 16Hr): 114.5%; EC50 ([2]; 0% FBS 16Hr): 25.2 µM; EPSA [5]: 201; Solubility [7]: 177; p53 reporter assay: % Effect ([8]; 0% FBS 16Hr): 100.4%; EC50 ([8]; 0% FBS 16Hr, read-out: p53 reporter assay: EC50): 1.48 µM
CC(=O)N[C@@H](CCCCN=[N+]=[N-])C(=O)NCCC(=O)N[C@@H](CC(C)C)C(=O)N[C@H](C(=O)N[C@@H](Cc1ccccc1)C(=O)N[C@]1(C)CCCCCCC=CCCC[C@@](C)(C(=O)N[C@@H](CO)C(=O)N[C@@H](C)C(=O)N[C@@H](C)C(N)=O)NC(=O)[C@H](CC2CCC2)NC(=O)[C@H](CCC(N)=O)NC(=O)[C@H](C)NC(=O)[C@H](CCC(=O)O)NC(=O)[C@H](Cc2ccc(O)cc2)NC(=O)[C@H](CCC(=O)O)NC1=O)[C@@H](C)O [Peptide W7E] | – | – | – | – | – | – | – | – | – | – | – | shift of NanoClick permeability vs MP-081 [12]: ~ 34 x
CC(=O)N[C@@H](CC(C)C)C(=O)N[C@H](C(=O)N[C@@H](Cc1ccccc1)C(=O)N[C@]1(C)CCCCCCC=CCCC[C@@](C)(C(=O)N[C@@H](CO)C(=O)N[C@@H](C)C(=O)N[C@@H](C)C(N)=O)NC(=O)[C@H](CC(C)C)NC(=O)[C@H](CCC(N)=O)NC(=O)[C@H](C)NC(=O)[C@H](Cc2c[nH]c3ccccc23)NC(=O)[C@H](Cc2ccc(O)cc2)NC(=O)[C@H](CCC(=O)O)NC1=O)[C@@H](C)O [MP-154] | 2.87 | 205.4 | 27.1 | 199 | 44.4 | 146 (≈ 254 µg/mL) | 150.7 | 0.417 | – | – | – | LDH: Cytotoxicity assay: % Effect [3]: 34.9%; EC50 ([4]; LDH: Cytotoxicity assay: EC50): > 50.7 µM
CC(=O)N[C@H](C(=O)N[C@@H](CO)C(=O)N[C@@H](Cc1ccccc1)C(=O)NC(C)(C)C(=O)N[C@@H](CCC(=O)O)C(=O)N[C@@H](Cc1ccc(O)cc1)C(=O)N[C@@H](Cc1c[nH]c2ccccc12)C(=O)N[C@@H](C)C(=O)N[C@@H](CC(C)C)C(=O)N[C@@H](CC(C)C)C(=O)NC(C)(C)C(N)=O)[C@@H](C)O [MP-153] | – | 16.18 | > 50 | – | 133 | – | – | – | 0.7534 | > 50 | 34.2 | –
CC(=O)N[C@H](C(=O)N[C@@H](CO)C(=O)N[C@@H](Cc1ccccc1)C(=O)N[C@]1(C)CCCCCCC=CCCC[C@@](C)(C(=O)N[C@@H](CO)C(=O)N[C@@H](C)C(=O)N[C@@H](C)C(=O)N[C@@H](CCC(=O)O)C(N)=O)NC(=O)[C@H](CC(C)C)NC(=O)[C@H](CC(C)C)NC(=O)[C@H](C)NC(=O)[C@H](Cc2c[nH]c3ccccc23)NC(=O)[C@H](Cc2ccc(O)cc2)NC(=O)[C@H](CCC(=O)O)NC1=O)[C@@H](C)O [MP-141] | – | 2.385 | > 50 | – | < 1 | – | – | – | 8.71 | > 50 | 5.36 | –
CC(=O)N[C@H](C(=O)N[C@@H](CO)C(=O)N[C@@H](Cc1ccc2ccccc2c1)C(=O)N[C@]1(C)CCCCCCC=CCCC[C@@](C)(C(N)=O)NC(=O)[C@H](CC(C)C)NC(=O)[C@H](CC(C)C)NC(=O)[C@H](C)NC(=O)[C@H](Cc2c[nH]c3ccccc23)NC(=O)[C@H](Cc2ccc(O)cc2)NC(=O)[C@H](CCC(=O)O)NC1=O)[C@@H](C)O [MP-145] (Ac-TS[2Nal][R8]EYWALL[S5]-NH2; staple 4-11) | – | 30.02 | > 50 | – | 4330 | – | – | – | 48.85 | 36.5 | 23.8 | –
